Test results: patent publication US8007737B2, “Use of antioxidants to prevent oxidation and reduce drug degradation in drug eluting medical devices” (Wyeth, priority 2004, dated 2011)
Like-named read-outs stand apart in the source and are kept apart here.

Legend:
[1] = Drug content (% label claim) of sirolimus solutions with antioxidants, HPLC assay
Method: Screening experiments were performed to evaluate the solubility of various antioxidants in […] (THF) solutions containing sirolimus and the percentage of antioxidant required to prevent oxidation of sirolimus alone and in a basecoat polymeric matrix. THF is the solvent in which sirolimus may be dissolved. It is important to note that other solvents may be utilized. Two sets of controls were utilized. Control #1 comprises solutions of THF and sirolimus and/or polymers with no antioxidant, and Control #2 comprises solutions of THF and sirolimus and/or polymers, wherein the THF contains a label claim of 250 ppm of BHT as a stabilizer from the vendor of THF. In other words, the BHT is an added constituent of the THF solvent to prevent oxidation of the solvent. All percentages are given as weight/volume.
Table 11, shown below, identifies the samples for evaluation. All percentages are given as weight/volume. The samples in Table 11 contain no polymer. Table 12, also shown below, identifies the samples for evaluation with the solutions now comprising polymers, including PBMA and PEVA as described herein.
(60° C.). The samples were evaluated after five (5) days utilizing a drug testing assay for silolimus. In the exemplary embodiment, a HPLC assay was utilized.
Additional samples were tested under ambient conditions, rather than at 60° C., and using the same compositions; however, the test period was expanded to seven weeks.

[2] = Percent drug content change on coated cobalt-chromium 18 mm stent; type: physicochemical; conditions: 0.02 weight percent BHT per total basecoat solids; 8 weeks and 12 weeks, ambient conditions (25° C.)
Text: Referring to FIG. 75, there is illustrated in graphical format, the results of the same drug screening as described above with the solution applied to a cobalt-chromium, 18 mm stent. In this test, two sets of solution samples were utilized, one with sirolimus and polymer solution containing the antioxidant and one with sirolimus and polymer solution containing no antioxidant. The antioxidant utilized was 0.02 weight percent BHT per total basecoat solids.
The test was utilized to determine the percent drug content change over a time period of 0 to 12 weeks under two conditions; namely, 40° C. with 75 percent relative humidity, and ambient conditions (25° C.).

[3] = Drug concentration in liquid formulations by liquid chromatography / HPLC; type: physicochemical
Text: In accordance with exemplary embodiments of the present invention, a series of liquid formulations were developed for the local or regional delivery of water insoluble compounds such as sirolimus and its analogs, including CCI-779, ABT-578 and everolimus, through weeping balloons and catheter injection needles. […] These liquid formulations increase the apparent solubility of the pharmacologically active but water insoluble compounds by two to four orders of magnitude as compared to the solubility limits of the compounds in water. These liquid formulations rely on the use of a very small amount of organic solvents such as Ethanol (typically less than two percent) and a larger amount of safe amphiphilic (of or relating to a molecule having a polar, water soluble group attached to a non-polar, water insoluble […]) excipients such as polyethylene glycol (PEG 200, PEG 400) and vitamin E TPGS to enhance the solubility of the compounds. These liquid formulations of highly water insoluble compounds are stable and readily flowable at room temperature. Certain excipients, such as Vitamin E TPGS and BHT may be utilized to enhance the storage stability of sirolimus compounds through their anti-oxidation properties. […]

[4] = In vivo release kinetics from polymeric stent coatings, porcine pharmacokinetics studies
Text: The topcoat is two hundred micro grams. […] Cladribine (2-chlorodeoxyadenosine or 2-CdA) is the 2-chloro-2′-deoxy derivative of the purine nucleoside, adenosine. Cladribine is resistant to degradation by adenosine deaminase, one of two intracellular adenine nucleotide regulatory enzymes, found in most cells. The other enzyme, 5′-nucleotidase, is present in variable amounts in different cell types (Carson et al., 1983). […] Thus, in cells such as leukocytes, which contain a high ratio (>0.04) of deoxycytidine kinase to 5′-nucleotidase, 2-CdA and its subsequent metabolites will tend to accumulate in pharmacological concentrations (Carson et al., 1983). Such high levels of a nucleoside triphosphate are known to inhibit the enzyme ribonucleotide reductase in rapidly dividing cells, thus preventing synthesis of deoxynucleotides required for DNA synthesis.
FIG. 61 is a graphical representation of the in vivo release kinetics of cladribine from a polymeric coating on Bx Velocity® stents, available from Cordis Corporation, implanted in a Yorkshire pig. […] The total weight of the topcoat is three hundred micrograms.
(§1) The basecoat is applied to Bx Velocity® stents and implanted into Yorkshire pigs.
as §1

[5] = test system: human coronary artery smooth muscle cells; assay: Anti-proliferative activity in non-synchronized cultured cells stimulated with two percent fetal bovine serum; type: cell-based; conditions: for effect on the anti-proliferative activity of rapamycin: non-synchronized cells, mycophenolic acid zero to one thousand nanomolar, cladribine zero to nine hundred nanomolar
Text: The multiple curves represent various concentrations of mycophenolic acid ranging from zero to one thousand nanomolar concentrations.
FIG. 58 illustrates, in graphical format, the anti-proliferative activity of cladribine in non-synchronized cultured human coronary artery smooth muscle cells stimulated with two percent fetal bovine serum.
The multiple curves represent various concentrations of cladribine ranging from zero to nine hundred nanomolar concentrations.

[6] = test system: human smooth muscle cells; assay: Cladribine Example: PDGF-stimulated cell proliferation, cell count on day six; type: cell-based; conditions: from IC50 values
Method: To assess the ability of cladribine to prevent cell proliferation, human smooth muscle or endothelial cells (Clonetics, Walkersville, Md.) were seeded at a density of 2000 cells/cm^2 (approximately 3600 cells/well) into each well of 12-well plates and cultured with 1.5 ml of growth medium containing five percent fetal calf serum (FCS). After twenty-four hours, the growth medium was changed and fresh medium containing 10 ng/ml platelet-derived growth factor AB (PDGF AB; LIFE Technologies), as well as various concentrations of cladribine (0.001-10,000 nM) were added with triplicate wells. Medium was replaced with fresh cladribine-containing medium after three days. On day six, cells were detached by trypsinization to yield a cell suspension, lightly centrifuged to pellet and then counted manually using a Neubauer hemocytometer system. Cell viability was assessed by trypan blue exclusion.

[7] = test system: human coronary artery smooth muscle cell survival; conditions: concentrations up to 30,000.00 nanomolar
Text: In vitro cytotoxicity tests or assays may be utilized to determine if drugs, agents and/or compounds are potentially toxic and the level of toxicity. Essentially, in vitro cytotoxicity assays determine acute necrotic effects by a drug causing direct cellular damage. The idea behind these assays is that toxic chemicals affect basic functions of cells which are common to all cells. […] There are a number of different assays that may be utilized. In the present invention, the cytotoxicity assay utilized is based upon the measurement of cellular metabolic activity. A reduction in metabolic activity is an indication of cellular damage. Tests that can measure metabolic function measure cellular ATP levels or mitochondrial activity via MTS metabolism. FIG. 69 is a graphical representation of the results of an MTS assay of Panzem®.

[8] = test system: human coronary artery smooth muscle cells; assay: Anti-proliferative activity in synchronized cultured cells stimulated with two percent fetal bovine serum; type: cell-based; conditions: for effect on the anti-proliferative activity of rapamycin: topotecan zero to three hundred nanomolar, etoposide zero to eight hundred nanomolar, Panzem zero to 100 micromolar
Text: (§2) The multiple curves represent various concentrations of topotecan ranging from zero to three hundred nanomolar concentrations.
(§3) The multiple curves represent various concentrations of etoposide ranging from zero to eight hundred nanomolar concentrations.
The multiple curves represent various concentrations of Panzem® ranging from zero to 100 micromolar concentrations.

cell viability = assay: Cell viability assay; type: cell-based
Text: as §2, §3

tumor cell lines = conditions: Woo et al. 2002; cited from earlier work
[9] = test system: human coronary artery smooth muscle cell proliferation; assay: In vitro cell culture study of coronary artery smooth muscle cell proliferation; type: cell-based
Text: FIG. 51 is a graph of the inhibition of coronary artery smooth muscle cells by trichostatin A in a cell culture study.

With `O=C1O[C@H]([C@@H](O)CO)C(O)=C1O` [Ascorbic Acid] the “protection of sirolimus against degradation” value (from here on “protection of sirolimus”) [1] was “significant protection”.

For `Cc1cc(C(C)(C)C)c(O)c(C(C)(C)C)c1` [BHT, Butylated Hydroxytoluene], the “percent drug content change on stent” value [2] was “lessens drug degradation” and the “protection of sirolimus” value [1] was “significant protection”.

With `CO[C@H]1C[C@@H]2CC[C@@H](C)[C@@](O)(O2)C(=O)C(=O)N2CCCC[C@H]2C(=O)O[C@H]([C@H](C)C[C@@H]2CC[C@@H](OC(=O)C(C)(CO)CO)[C@H](OC)C2)CC(=O)[C@H](C)/C=C(\C)[C@@H](O)[C@@H](OC)C(=O)[C@H](C)C[C@H](C)/C=C/C=C/C=C/1C` [CCI-779] the “concentration in the final solution (HPLC assay)” value ([3]; water and ethanol (less than two percent) as co-solvents, Vitamin E TPGS as excipient) was 15000 µg/mL.

For `Nc1nc(Cl)nc2c1ncn2[C@H]1C[C@H](O)[C@@H](CO)O1` [Cladribine, 2-chlorodeoxyadenosine], the “in vivo elution from coating relative to rapamycin” value ([4]; EVA/BMA basecoat, BMA topcoat, Bx Velocity stents, Yorkshire pigs) was “elutes more rapidly than rapamycin”, the “in vivo elution from coating” value ([4]; PVDF/HFP 85/15 basecoat and topcoat, Bx Velocity stents, Yorkshire pig, after the first day) was “levels off significantly” and the “effect on the anti-proliferative activity of rapamycin” value (shortened to “effect”) [5] was “increases the percent inhibition of rapamycin alone”. For the same compound, the “inhibition of human coronary artery smooth muscle cell proliferation” value ([5]; non-synchronized, two percent fetal bovine serum) was “completely inhibits” and the “potency on smooth muscle cells relative to endothelial cells” value [6] was “approximately twice as potent”.

For `COc1cc2c(cc1O)CC[C@@H]1[C@@H]2CC[C@]2(C)[C@@H](O)CC[C@@H]12` [Panzem®, 2-methoxyestradiol], the “cytotoxicity (MTS assay)” value [7] was “do not reduce human coronary artery smooth muscle cell survival”, the “effect” value [8] was “increases the percent of inhibition of rapamycin alone” and the anti-proliferative activity ([8]; two percent fetal bovine serum) was “extremely effective inhibitor”.

In the case of `CO[C@H]1C[C@@H]2CC[C@@H](C)[C@@](O)(O2)C(=O)C(=O)N2CCCC[C@H]2C(=O)O[C@H]([C@H](C)C[C@@H]2CC[C@@H](O)[C@H](OC)C2)CC(=O)[C@H](C)/C=C(\C)[C@@H](O)[C@@H](OC)C(=O)[C@H](C)C[C@H](C)/C=C/C=C/C=C/1C` [Rapamycin, rapamycin], the “in vivo release rate from coating” value ([4]; pig, in vivo) is reported as “slower release rate than that of mycophenolic acid” and the “concentration relative to the solubility of sirolimus in water” value ([3]; 4 mg/ml formulation with PEG 200, ethanol and water) is reported as “four hundred to about one thousand”.

In the case of `COc1cc([C@@H]2c3cc4c(cc3[C@@H](O[C@@H]3O[C@@H]5CO[C@@H](C)O[C@H]5[C@H](O)[C@H]3O)[C@H]3COC(=O)[C@H]23)OCO4)cc(OC)c1O` [etoposide], the cytotoxicity (cell viability; concentrations up to ten micromolar) is reported as “non-cytotoxic” and the “effect” value [8] is reported as “increases the percent inhibition of rapamycin alone”.

In the case of `COc1c(C)c2c(c(O)c1C/C=C(\C)CCC(=O)O)C(=O)OC2` [mycophenolic acid], the “effect” value [5] is reported as “potentiates the anti-proliferative activity of rapamycin”.

With `CC[C@@]1(O)C(=O)OCc2c1cc1n(c2=O)Cc2cc3c(CN(C)C)c(O)ccc3nc2-1` [topotecan] the cytotoxicity (cell viability; concentrations up to one micromolar) was “non-cytotoxic” and the “effect” value [8] was “increases the percent inhibition of rapamycin alone”.

In the case of `CC(/C=C/C(=O)NO)=C\[C@@H](C)C(=O)c1ccc(N(C)C)cc1` [trichostatin A], the “anti-proliferative IC50's” value (tumor cell lines) is listed as “low nM range”, the “inhibition of human coronary artery smooth muscle cell proliferation” value [9] is listed as “completely inhibit” and the IC50 ([9]; human coronary artery smooth muscle cells, read-out: anti-proliferative IC50) is listed as about 6 nM.

For Tocopherol, the “protection of sirolimus” value ([1]; five days at 60° C.) was “significant protection” and the “protection of sirolimus” value ([1]; four weeks at 60° C., higher percent concentrations of antioxidant) was “significant protection”.
